# Test results as given in patent publication US20230027066A1 (Urovant Sciences GmbH, priority 2019, published 2023).
# System: men and women with overactive bladder
# Experiment: Phase 3 study of vibegron 75 mg vs placebo and tolterodine ER 4 mg, 12 weeks, efficacy (voiding and urine volume diary)
# Type: in vivo, human
# Protocol: Enrollment of patients included individuals with OAB Wet (those with UUI, the involuntary loss of urine accompanied by urgency) and OAB Dry (those without UUI). A total of 1,518 patients were randomized across 215 study sites into one of three groups for a 12-week treatment period.
# The study consisted of a Screening Period (1 to 5 weeks), a single-blind Run-in Period (2 weeks), a randomized double-blind Treatment Period (12 weeks), and a Follow-up Period (4 weeks).
# Tolterodine ER 4 mg was the active control. […] Between the Baseline and Week 12 Visits, patients had study assessments at Week 4 and Week 8.
# The Patient Voiding Diary was used by participants (via the eDiary or paper Diary) to record the frequency of daily OAB symptoms including all micturitions, urgency, incontinence, and main reason for incontinence by selecting the respective box for each symptom occurring during the course of a given day and night.
# Urine volume data were collected separately by patients using the Urine Volume component of the eDiary, or the paper Urine Volume Chart. The Urine Volume Chart is a tool used in clinical practice and clinical investigation to assess voiding functions over a 24-hour period and is regarded as a useful instrument in the investigation of patients with voiding symptoms. Urine volume may be collected during any one (1) of the 7 Diary Days prior to the visit, and it should be recorded for ˜24 hours starting from the time the patient gets up for the day and continues until the time the patient gets up for the day on the next day.
# For the purpose of this study, the number of micturitions was defined as the number of times a patient has voided in the toilet as indicated on the Patient Voiding Diary. Average daily micturitions were calculated using the daily entries in the Patient Voiding Diary, which was completed over the 7 days prior to each study visit. Average daily number of micturitions were calculated as the total number of micturitions that occurred on a Complete Diary Day divided by the number of Complete Diary Days in the Patient Voiding Diary. A complete diary day required confirmation by the patient in the Patient Voiding Diary that all voids and leakages had been recorded for the diary day. Baseline was defined as the average number of micturitions occurring during the last evaluable diary prior to the Baseline Visit.
# The number of UUI episodes was defined as the number of times a patient had checked “urge” as the reason for accidental urine leakage. Average daily UUI episodes at each study visit were calculated in the same manner as described above for the micturition endpoint. The UUI endpoint were analyzed using only OAB Wet patients.
# For the analysis of the co-primary endpoints (change from baseline in average number of daily micturitions at Week 12 and change from baseline in average number of daily urge urinary incontinence episodes at Week 12, and placebo adjustment of each), a mixed model for repeated measure (MMRM) with restricted maximum likelihood estimation was used. This model corrects for dropout and accounts for the fact that measurements taken on the same patient over time tend to be correlated by using all available information on patients within the same covariate set to derive an estimate of the treatment effect for a dropout-free population. The analysis model for each efficacy endpoint includes terms for treatment, visit, OAB Type (Wet vs Dry), Sex (Female vs Male), Region (US vs Rest of World), baseline score, and interaction of visit by treatment.
# Primary inferences were drawn from treatment differences for the changes from baseline derived from the MMRM models at Week 12. As part of secondary objectives, the treatment differences for each post baseline visit were also derived using the same MMRM model. […]
# [1] = Week 8, events of Events/Censored
# [2] = Week 12, Age ≥ 75 years (posthoc analysis)
# [3] = Week 12, No Prior ACH Use in last 12 Mo.
# [4] = Week 12, No Prior B3 Agonist Use in last 12 Mo.
# [5] = Week 12, Prior ACH Use in last 12 Mo.
# [6] = Week 12, Prior B3 Agonist Use in last 12 Mo.
smiles,measurement,setting,value
"Cc1ccc(O)c([C@H](CCN(C(C)C)C(C)C)c2ccccc2)c1 [Tolterodine ER, tolterodine, reference compound]","Average daily number of urgency episodes, Mean (SD)",Week 8,5.60 (4.266)
same,"Average volume voided per micturition, Active - Placebo LS Mean Difference",Week 8,14.4 mL
same,"Average volume voided per micturition, Week 8 Mean (SD)",Week 8,162.9 (74.46) mL
same,"Change from Baseline in Average Daily Number of Total Incontinence, LS Mean (SE)",Week 8,−1.8 (0.16)
same,"Change from baseline in average daily number of urgency episodes, LS Mean",Week 8,−2.2
same,"Change from baseline in average volume voided per micturition, LS Mean (SE)",Week 8,17.5 (3.44) mL
same,Estimated Incidence of Subjects with 50% Decrease from Baseline (urgency episodes),Week 8,30.9
same,Estimated Incidence of Subjects with 100% Decrease from Baseline (UUI episodes),Week 8,15.8
same,"Total Incontinence, Active - Placebo LS Mean Difference (SE)",Week 8,−0.5 (0.17)
same,"Urgency episodes, Active - Placebo LS Mean Difference",Week 8,−0.6
same,"First 50% Reduction in Urgency Episodes, Events",[1],127/290
same,"First 100% Reduction in UUI Episodes, Events",[1],49/270
same,"Average Daily Number of Total Incontinence, Mean (SD)",Week 12,1.89 (2.353)
same,"Average daily number of urgency episodes, Mean (SD)",Week 12,5.36 (4.425)
same,"Average volume voided per micturition, Active - Placebo LS Mean Difference",Week 12,13.3 mL
same,"Average volume voided per micturition, Week 12 Mean (SD)",Week 12,162.1 (72.96) mL
same,"Change from Baseline in Average Daily Number of Total Incontinence, LS Mean (SE)",Week 12,−2.0 (0.16)
same,"Change from baseline in average daily number of urgency episodes, LS Mean",Week 12,−2.5
same,"Change from baseline in average volume voided per micturition, LS Mean (SE)",Week 12,15.5 (3.52) mL
same,Estimated Incidence of Subjects with 50% Decrease from Baseline (urgency episodes),Week 12,40.5
same,Estimated Incidence of Subjects with 100% Decrease from Baseline (UUI episodes),Week 12,24.4
same,"Total Incontinence, Active - Placebo LS Mean Difference (SE)",Week 12,−0.5 (0.17)
same,"Urgency episodes, Active - Placebo LS Mean Difference",Week 12,−0.4
same,Micturitions: Week 12 CFB Mean (descriptive statistics),"Week 12, <65 yrs",−1.99
same,UUI: Week 12 CFB Mean (descriptive statistics),"Week 12, African American",−1.42
same,UUI: Week 12 CFB Median,"Week 12, African American",−1.43
same,Micturitions: Week 12 CFB LS Mean (95% CI),"Week 12, Age < 65 years",−1.8
same,UUI: Week 12 CFB LS Mean (95% CI),"Week 12, Age < 65 years",−1.8
same,UUI: Week 12 CFB Mean (descriptive statistics),"Week 12, Age < 65 years",−1.72
same,Micturitions: Week 12 CFB LS Mean (95% CI),"Week 12, Age ≥ 65 years",−1.3
same,UUI: Week 12 CFB LS Mean (95% CI),"Week 12, Age ≥ 65 years",−1.8
same,UUI: Week 12 CFB Mean (descriptive statistics),"Week 12, Age ≥ 65 years",−1.80
same,Micturitions: Week 12 CFB LS Mean (95% CI),[2],−1.5
same,UUI: Week 12 CFB LS Mean (95% CI),[2],−2.0
same,UUI: Week 12 CFB Mean (descriptive statistics),"Week 12, Asian",−0.21
same,UUI: Week 12 CFB Median,"Week 12, Asian",−0.14
same,Micturitions: Week 12 CFB LS Mean (95% CI),"Week 12, Females",−1.7
same,Micturitions: Week 12 CFB Mean (descriptive statistics),"Week 12, Females",−1.88
same,UUI: Week 12 CFB LS Mean (95% CI),"Week 12, Females",−1.8
same,UUI: Week 12 CFB Mean (descriptive statistics),"Week 12, Females",−1.71
same,Micturitions: Week 12 CFB LS Mean (95% CI),"Week 12, Males",−1.0
same,Micturitions: Week 12 CFB Mean (descriptive statistics),"Week 12, Males",−1.28
same,UUI: Week 12 CFB LS Mean (95% CI),"Week 12, Males",−2.0
same,UUI: Week 12 CFB Mean (descriptive statistics),"Week 12, Males",−2.08
same,Micturitions: Week 12 CFB Mean (descriptive statistics),"Week 12, Males with BPH",−1.25
same,UUI: Week 12 CFB Mean (descriptive statistics),"Week 12, Males with BPH",−2.15
same,Micturitions: Week 12 CFB Mean (descriptive statistics),"Week 12, Males without BPH",−1.29
same,UUI: Week 12 CFB Mean (descriptive statistics),"Week 12, Males without BPH",−2.05
same,Micturitions: Week 12 CFB Mean (descriptive statistics),[3],−1.82
same,UUI: Week 12 CFB Mean (descriptive statistics),[3],−1.88
same,Micturitions: Week 12 CFB Mean (descriptive statistics),[4],−1.83
same,UUI: Week 12 CFB Mean (descriptive statistics),[4],−1.83
same,Micturitions: Week 12 CFB LS Mean (95% CI),"Week 12, Non-White",−1.3
same,Micturitions: Week 12 CFB Mean (descriptive statistics),"Week 12, Non-White",−1.42
same,UUI: Week 12 CFB LS Mean (95% CI),"Week 12, Non-White",−1.3
same,UUI: Week 12 CFB Mean (descriptive statistics),"Week 12, Non-White",−1.11
same,UUI: Week 12 CFB Median,"Week 12, Non-White",−1.00
same,Micturitions: Week 12 CFB LS Mean (95% CI),"Week 12, Overall",−1.6
same,Micturitions: Week 12 CFB Mean (descriptive statistics),"Week 12, Overall",−1.78
same,UUI: Week 12 CFB LS Mean (95% CI),"Week 12, Overall",−1.8
same,UUI: Week 12 CFB Mean (descriptive statistics),"Week 12, Overall",−1.75
same,Micturitions: Week 12 CFB Mean (descriptive statistics),[5],−1.52
same,UUI: Week 12 CFB Mean (descriptive statistics),[5],−0.98
same,Micturitions: Week 12 CFB Mean (descriptive statistics),[6],−1.30
same,UUI: Week 12 CFB Mean (descriptive statistics),[6],−0.65
same,Micturitions: Week 12 CFB LS Mean (95% CI),"Week 12, Region: Non-US",−1.0
same,Micturitions: Week 12 CFB Mean (descriptive statistics),"Week 12, Region: Non-US",−1.38
same,UUI: Week 12 CFB LS Mean (95% CI),"Week 12, Region: Non-US",−2.0
same,UUI: Week 12 CFB Mean (descriptive statistics),"Week 12, Region: Non-US",−2.26
same,Micturitions: Week 12 CFB LS Mean (95% CI),"Week 12, Region: US",−1.7
same,Micturitions: Week 12 CFB Mean (descriptive statistics),"Week 12, Region: US",−1.83
same,UUI: Week 12 CFB LS Mean (95% CI),"Week 12, Region: US",−1.7
same,UUI: Week 12 CFB Mean (descriptive statistics),"Week 12, Region: US",−1.69
same,Micturitions: Week 12 CFB LS Mean (95% CI),"Week 12, White",−1.6
same,Micturitions: Week 12 CFB Mean (descriptive statistics),"Week 12, White",−1.90
same,UUI: Week 12 CFB LS Mean (95% CI),"Week 12, White",−1.9
same,UUI: Week 12 CFB Mean (descriptive statistics),"Week 12, White",−1.92
same,UUI: Week 12 CFB Median,"Week 12, White",−1.57
